Measured values from US20220233555A1, “Improved administration of glycylcyclines by inhalation” (Stichting Radboud universitair medisch centrum, priority 2019, published 2022).

Tests used:
M. abscessus [1] = assay: Intrapulmonary aerosol M. abscessus infection in GM-CSF KO mice, lung CFU determination; format: in vivo, Mycobacterium abscessus; settings: for Log10 CFU count After 4 weeks: GM-CSF KO mice, lungs, 5 days a week for 4 weeks, at start 4.80, untreated 3.93
[2] = cited from earlier work
[3] = in vivo, cited from earlier work
[4] = rat, in vivo; cited from earlier work
[5] = in vivo; cited from earlier work
M. abscessus [6] = settings: cited from earlier work
[7] = tested on: M. abscessus and M. chelonae infections; settings: cited from earlier work

CN(C)c1cc(NC(=O)CNC(C)(C)C)c(O)c2c1C[C@H]1C[C@H]3[C@H](N(C)C)C(O)=C(C(N)=O)C(=O)[C@@]3(O)C(O)=C1C2=O [tigecycline]
bacterial colonies after culturing lung tissue (M. abscessus [1]; 2.5 mg cohorts, 9 out of 10 mice, 4 weeks): no bacterial colonies were visible
log 10 CFU count of the mouse with incomplete response (M. abscessus [1]; 2.5 mg cohorts, one mouse with abscess formation, 4 weeks): 0.5 log 10 CFU
Log10 CFU count After 4 weeks (M. abscessus [1]; inhaled 0.25 mg/dose): 3.28 Log10 CFU
Log10 CFU count After 4 weeks (M. abscessus [1]; inhaled 1.25 mg/dose): 0.695 Log10 CFU
Log10 CFU count After 4 weeks (M. abscessus [1]; inhaled 2.5 mg/dose): 0.50 Log10 CFU
Protein binding [2]: approximately 68%
half-life ([3]; human): 36 h
excreted unchanged in the urine [3]: not more than 15%
volume of distribution [3]: > 10 L/kg
penetration into tissues [4]: good penetration into tissues
dose at which gastrointestinal adverse events were dose limiting [5]: 300 mg
nausea, share of tigecycline recipients [5]: 48.5%
vomiting, share of tigecycline recipients [5]: 29.4%
log kill of M. abscessus (M. abscessus [6]; at 200 mg/day, short-term inhibitory effect): 1 log kill
maximum microbial kill (M. abscessus [6]; at higher doses): 1.37 log10 CFU/mL
cases with adverse events reported ([7]; human, in vivo, iv): about 90%
patients with serious adverse events ([7]; human, in vivo, iv): 29 out of 52
patients who stopped tigecycline therapy early because of adverse events ([7]; human, in vivo): 27%
patients with improvement ([7]; intravenous 100 mg then 50 mg every 12 h, part of a multidrug regimen): about 60%
